ChEMBL document CHEMBL5321235, “Design, synthesis, and SAR study of novel flavone 1,2,4-oxadiazole derivatives with anti-inflammatory activities for the treatment of Parkinson's disease” (Eur J Med Chem, 2023)
Calls of active or inactive are those of the source. No cut-off for these calls is given here.

What was measured:
BV-2 [1] = experiment: Inhibition of LPS-induced ROS production in mouse BV-2 cells at 5 uM pretreated for 18 hrs followed by LPS-stimulation and measured after 6 hrs by fluorescence microscopic analysis; format: functional, cell-based; details: time 24.0 hrs
BV-2 [2] = experiment: Cytotoxicity against mouse BV-2 cells assessed as reduction in cell viability at 5 uM pretreated for 18 hrs followed by LPS-stimulation and measured after 6 hrs by MTT assay; format: toxicity, cell-based; details: bv-2, 24 h
BV-2 [3] = experiment: Antiinflammatory activity in mouse BV-2 cells assessed as inhibition of LPS-induced NO production at 5 uM pretreated for 18 hrs followed by LPS-induction and measured after 6 hrs relative to control; format: functional; parameters: scale not given: the % may be the effect or the level left; details: time 24 hrs
Microglia = experiment: Neuroprotective activity against MPTP-induced apoptosis in mouse microglia assessed as reduction in apoptotic cells in brain tissue at 15 mg/kg, ip administered with compound once daily for 2 weeks followed by MPTP addition on day 8 and measured after 2 weeks of compound addition by TUNEL staining based immunofluorescence analysis; format: functional, organism-based

Row | SMILES | inhibition (BV-2 [1]) | Activity (BV-2 [2]) | Activity (BV-2 [3]) | Activity (Microglia)
1 | Cc1c(-c2ccccc2)oc2c(-c3nc(-c4ccsc4)no3)cccc2c1=O | Active |  |  | 
2 | Cc1c(-c2ccccc2)oc2c(-c3nc(-c4cccc(Br)c4)no3)cccc2c1=O | Active | Non-Toxic | 41.6% | 
3 | C#CCN[C@@H]1CCc2ccccc21 | Active |  |  | Active
4 | Cc1c(-c2ccccc2)oc2c(-c3nc(-c4ccccc4Br)no3)cccc2c1=O | Active |  | 41.6% | 
5 | COc1ccc(-c2coc3cc(O)cc(O)c3c2=O)cc1 | Active |  |  | 
6 | Cc1c(-c2ccccc2)oc2c(-c3nc(-c4ccc(Br)cc4)no3)cccc2c1=O | Active | Non-Toxic | 41.6% | 
7 | Cc1c(-c2ccccc2)oc2c(-c3nc(-c4ccccc4)no3)cccc2c1=O | Active |  | 22.4% | 
8 | COc1ccc(-c2noc(-c3cccc4c(=O)c(C)c(-c5ccccc5)oc34)n2)cc1 | Active |  | 22.4% | 
9 | COc1ccccc1-c1noc(-c2cccc3c(=O)c(C)c(-c4ccccc4)oc23)n1 | inactive |  | 41.6% | 
